Laboratory results taken from ChEMBL document CHEMBL1926576, “Fragment based lead discovery of small molecule inhibitors for the EPHA4 receptor tyrosine kinase” (Eur J Med Chem, 2012).

Columns and labels:
Ephrin type-A receptor 4 [1] = target: T1, Ephrin type-A receptor 4 (Homo sapiens, UniProt P54764); test: Inhibition of his-tagged EPHA4-mediated poly(Glu,Tyr) phosphorylation at 200 uM after 75 mins using E4:Y1 as substrate by fluorescence assay
Ephrin type-A receptor 4 [2] = target: T1, Ephrin type-A receptor 4; test: Inhibition of his-tagged EPHA4-mediated poly(Glu,Tyr) phosphorylation after 75 mins using E4:Y1 as substrate by fluorescence assay
Ephrin type-A receptor 4 [3] = target: T1, Ephrin type-A receptor 4; test: Inhibition of his-tagged EPHA4-mediated poly(Glu,Tyr) phosphorylation at 500 uM after 75 mins using E4:Y1 as substrate by fluorescence assay

T1 sequence (P54764 whole entry): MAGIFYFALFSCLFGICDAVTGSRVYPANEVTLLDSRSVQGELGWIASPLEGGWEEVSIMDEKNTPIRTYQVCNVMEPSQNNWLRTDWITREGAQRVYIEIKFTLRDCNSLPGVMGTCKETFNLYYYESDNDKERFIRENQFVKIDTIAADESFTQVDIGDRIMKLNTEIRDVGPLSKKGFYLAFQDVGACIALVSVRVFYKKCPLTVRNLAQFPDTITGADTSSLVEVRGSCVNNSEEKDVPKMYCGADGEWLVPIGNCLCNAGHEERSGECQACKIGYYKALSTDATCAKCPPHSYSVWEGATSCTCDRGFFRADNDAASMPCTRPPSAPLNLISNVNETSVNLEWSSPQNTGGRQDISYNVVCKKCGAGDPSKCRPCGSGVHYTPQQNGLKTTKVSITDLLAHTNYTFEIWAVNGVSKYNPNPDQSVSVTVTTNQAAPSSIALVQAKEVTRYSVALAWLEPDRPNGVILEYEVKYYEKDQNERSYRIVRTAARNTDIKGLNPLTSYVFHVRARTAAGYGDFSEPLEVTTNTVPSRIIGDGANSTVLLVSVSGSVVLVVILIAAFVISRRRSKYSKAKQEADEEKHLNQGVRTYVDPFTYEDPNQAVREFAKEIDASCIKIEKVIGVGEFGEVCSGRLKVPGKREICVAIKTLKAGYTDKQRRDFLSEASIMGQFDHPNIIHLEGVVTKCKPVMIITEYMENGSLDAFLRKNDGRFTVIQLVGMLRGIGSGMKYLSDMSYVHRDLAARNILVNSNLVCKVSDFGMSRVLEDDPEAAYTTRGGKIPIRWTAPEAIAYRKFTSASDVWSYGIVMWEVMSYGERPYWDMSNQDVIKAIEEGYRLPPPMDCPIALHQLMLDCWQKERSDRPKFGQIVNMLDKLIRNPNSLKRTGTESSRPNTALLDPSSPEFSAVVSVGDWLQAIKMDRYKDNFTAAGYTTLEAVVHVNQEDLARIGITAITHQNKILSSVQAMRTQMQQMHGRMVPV

SMILES	inhibition (Ephrin type-A receptor 4 [1]) [%]	also measured
CN1CCc2c(c(N3CCOCC3)nc3[nH]nc(N)c23)C1	0	
Nc1n[nH]c2nc(-c3ccccc3Cl)c3c(c12)CCCC3		IC50 (Ephrin type-A receptor 4 [2]): 8.1 µM
Cc1nc2[nH]nc(N)c2c2c1CSC(C)(C)C2	70	
Nc1n[nH]c2ncc3c(c12)CCCC3		inhibition (Ephrin type-A receptor 4 [3]): 80%
Nc1n[nH]c2ncc3c(c12)CCCCCC3	80	
CN1CCc2c(c(NCCO)nc3[nH]nc(N)c23)C1	0	
CC1(C)Cc2c(c(-c3ccccc3)nc3[nH]nc(N)c23)CO1	90	
Cc1cc(C)c2c(NC(=O)c3ccccc3)n[nH]c2n1	10	
CC(C)c1nc2[nH]nc(N)c2c2c1COC(C)(C)C2	82	
CC1(C)Cc2c(c(-c3ccco3)[nH]c3nnc(N)c2-3)CO1	75	
CCN(CC)c1nc2[nH]nc(N)c2c2c1CN(C)CC2	5	
CC1(C)Cc2c(c(-c3ccccc3)nc3[nH]nc(N)c23)CS1	87	
CCCc1nc2[nH]nc(N)c2c2c1COC(C)(C)C2	77	
CN1CCc2c(c(NCc3ccccc3)nc3[nH]nc(N)c23)C1	33	
Cc1ccccc1-c1nc2[nH]nc(N)c2c2c1CCCC2		IC50 (Ephrin type-A receptor 4 [2]): 2 µM
